In ChEMBL document CHEMBL5291721, “A preclinical secondary pharmacology resource illuminates target-adverse drug reaction associations of marketed drugs” (Nat Commun, 2023) one finds AC50 data, which are given here for 20 compounds.

As a reminder, the AC50 is the concentration giving half of the maximal activity seen. Higher therefore signals weaker potency.

The target of one assay is T1, Estrogen receptor (Homo sapiens, UniProt P03372).
T1 sequence (P03372 whole entry): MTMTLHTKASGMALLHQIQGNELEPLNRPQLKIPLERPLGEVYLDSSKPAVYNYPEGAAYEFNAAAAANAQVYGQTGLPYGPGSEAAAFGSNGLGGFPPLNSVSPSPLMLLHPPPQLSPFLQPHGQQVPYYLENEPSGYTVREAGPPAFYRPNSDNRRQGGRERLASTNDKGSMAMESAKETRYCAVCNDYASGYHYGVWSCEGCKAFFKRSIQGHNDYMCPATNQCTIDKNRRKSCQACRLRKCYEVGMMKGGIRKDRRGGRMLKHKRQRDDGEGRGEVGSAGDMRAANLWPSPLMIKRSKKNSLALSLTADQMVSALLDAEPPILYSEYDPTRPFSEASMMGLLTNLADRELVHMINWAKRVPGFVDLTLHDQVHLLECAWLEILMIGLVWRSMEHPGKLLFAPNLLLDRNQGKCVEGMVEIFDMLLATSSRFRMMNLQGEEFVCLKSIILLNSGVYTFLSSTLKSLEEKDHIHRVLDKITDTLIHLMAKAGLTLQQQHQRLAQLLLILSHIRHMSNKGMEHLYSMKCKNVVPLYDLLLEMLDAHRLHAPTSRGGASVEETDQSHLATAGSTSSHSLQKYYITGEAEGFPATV

Assay [1] concerns the target T2, 5-hydroxytryptamine receptor 1A (Homo sapiens, UniProt P08908).
T2 sequence (P08908 whole entry): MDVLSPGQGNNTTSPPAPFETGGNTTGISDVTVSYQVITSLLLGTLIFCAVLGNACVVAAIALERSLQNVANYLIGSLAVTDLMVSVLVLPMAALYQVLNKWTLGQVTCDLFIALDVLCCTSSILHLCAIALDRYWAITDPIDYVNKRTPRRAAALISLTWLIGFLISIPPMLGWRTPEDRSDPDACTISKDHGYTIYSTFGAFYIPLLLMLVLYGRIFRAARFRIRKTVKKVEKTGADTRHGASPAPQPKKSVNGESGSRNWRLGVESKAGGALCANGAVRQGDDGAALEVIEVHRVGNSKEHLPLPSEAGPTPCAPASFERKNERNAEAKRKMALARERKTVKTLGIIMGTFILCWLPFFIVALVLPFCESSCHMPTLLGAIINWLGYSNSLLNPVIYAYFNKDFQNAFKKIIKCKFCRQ
It counts as functional, cell-based.

Assay [2] addresses 5-hydroxytryptamine receptor 2A (Homo sapiens, UniProt P28223). Type of assay: functional, cell-based.
The target of the next assay is Mu-type opioid receptor (Homo sapiens, UniProt P35372). Nature of the assay: biochemical. Type of assay: functional.
Assay [3] has as its target T3, Endothelin receptor type B (Homo sapiens, UniProt P24530).
T3 sequence (P24530 whole entry): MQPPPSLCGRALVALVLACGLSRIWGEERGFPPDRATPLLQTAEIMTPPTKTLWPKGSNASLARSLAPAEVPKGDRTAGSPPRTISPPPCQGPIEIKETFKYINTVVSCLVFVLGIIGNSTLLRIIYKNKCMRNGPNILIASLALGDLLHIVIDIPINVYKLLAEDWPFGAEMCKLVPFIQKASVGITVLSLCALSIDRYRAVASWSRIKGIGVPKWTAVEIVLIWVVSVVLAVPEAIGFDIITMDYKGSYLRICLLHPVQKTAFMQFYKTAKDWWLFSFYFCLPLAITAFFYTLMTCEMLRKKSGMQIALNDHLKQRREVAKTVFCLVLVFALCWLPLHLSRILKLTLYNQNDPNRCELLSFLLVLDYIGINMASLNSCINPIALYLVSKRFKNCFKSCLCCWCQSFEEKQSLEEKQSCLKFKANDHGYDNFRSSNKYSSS

In a further assay the target is Estrogen receptor beta (Homo sapiens, UniProt Q92731).
Assay [4] has as its target T4, Alpha-2A adrenergic receptor (Homo sapiens, UniProt P08913).
T4 sequence (P08913 whole entry): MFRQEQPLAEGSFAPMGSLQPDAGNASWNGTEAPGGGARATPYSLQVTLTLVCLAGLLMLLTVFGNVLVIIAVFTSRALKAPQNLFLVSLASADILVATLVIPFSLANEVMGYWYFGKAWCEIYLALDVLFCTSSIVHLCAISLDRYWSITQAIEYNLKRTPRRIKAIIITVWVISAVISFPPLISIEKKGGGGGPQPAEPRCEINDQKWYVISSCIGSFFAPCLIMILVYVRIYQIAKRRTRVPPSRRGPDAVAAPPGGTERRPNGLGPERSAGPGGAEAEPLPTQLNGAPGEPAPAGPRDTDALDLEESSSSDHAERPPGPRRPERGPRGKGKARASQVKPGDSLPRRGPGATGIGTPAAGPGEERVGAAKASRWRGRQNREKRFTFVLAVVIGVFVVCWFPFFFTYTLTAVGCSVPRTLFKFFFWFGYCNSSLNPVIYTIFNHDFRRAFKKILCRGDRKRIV

In assay [5] the target is T2, 5-hydroxytryptamine receptor 1A.
Further: assay procedure not described here.

Sequence of Mu-type opioid receptor (P35372 whole entry): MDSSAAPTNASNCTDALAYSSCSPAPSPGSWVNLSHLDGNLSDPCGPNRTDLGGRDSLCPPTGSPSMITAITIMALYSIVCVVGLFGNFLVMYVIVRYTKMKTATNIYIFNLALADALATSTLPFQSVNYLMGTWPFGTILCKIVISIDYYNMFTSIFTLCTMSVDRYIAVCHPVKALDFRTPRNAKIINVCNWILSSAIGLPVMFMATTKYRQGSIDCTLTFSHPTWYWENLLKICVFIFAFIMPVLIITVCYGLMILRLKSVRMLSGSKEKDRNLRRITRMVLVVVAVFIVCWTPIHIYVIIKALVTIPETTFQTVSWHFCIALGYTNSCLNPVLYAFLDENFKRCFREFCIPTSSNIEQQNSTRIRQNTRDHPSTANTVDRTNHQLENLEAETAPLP
Sequence of 5-hydroxytryptamine receptor 2A (P28223 whole entry): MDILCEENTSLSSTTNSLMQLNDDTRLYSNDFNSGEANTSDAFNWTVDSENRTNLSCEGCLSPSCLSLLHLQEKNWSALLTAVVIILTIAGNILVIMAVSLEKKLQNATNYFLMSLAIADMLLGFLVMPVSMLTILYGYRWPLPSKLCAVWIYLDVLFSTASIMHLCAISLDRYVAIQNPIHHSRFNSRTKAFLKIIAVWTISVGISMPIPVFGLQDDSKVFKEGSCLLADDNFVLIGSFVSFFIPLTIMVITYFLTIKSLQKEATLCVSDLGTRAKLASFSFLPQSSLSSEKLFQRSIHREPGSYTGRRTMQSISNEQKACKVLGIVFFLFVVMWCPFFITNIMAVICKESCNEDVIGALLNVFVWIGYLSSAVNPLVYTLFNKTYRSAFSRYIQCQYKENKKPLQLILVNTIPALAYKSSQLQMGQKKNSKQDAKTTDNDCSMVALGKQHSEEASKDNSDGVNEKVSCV
Sequence of Estrogen receptor beta (Q92731 whole entry): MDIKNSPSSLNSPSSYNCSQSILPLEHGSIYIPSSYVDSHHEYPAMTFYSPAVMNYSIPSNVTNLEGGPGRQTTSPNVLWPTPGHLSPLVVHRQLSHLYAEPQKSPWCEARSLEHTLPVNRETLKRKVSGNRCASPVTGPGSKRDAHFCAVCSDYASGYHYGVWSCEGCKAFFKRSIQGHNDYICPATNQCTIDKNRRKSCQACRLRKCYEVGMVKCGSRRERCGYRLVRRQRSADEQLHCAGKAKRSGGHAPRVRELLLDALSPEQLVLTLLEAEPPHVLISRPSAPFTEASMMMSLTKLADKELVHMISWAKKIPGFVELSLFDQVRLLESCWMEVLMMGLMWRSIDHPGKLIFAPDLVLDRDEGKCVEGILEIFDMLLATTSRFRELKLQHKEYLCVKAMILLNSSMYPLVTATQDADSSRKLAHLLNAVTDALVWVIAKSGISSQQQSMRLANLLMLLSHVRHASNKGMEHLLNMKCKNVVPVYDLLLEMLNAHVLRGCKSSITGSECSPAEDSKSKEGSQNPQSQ

`CCC(CC)(CC(=O)Nc1cccc(/C=C/c2nc(C3CCC3)cs2)c1)C(=O)O` registered an AC50 at Estrogen receptor of more than 30 µM.

On to `CC[C@@H](C(N)=O)N1CCCC1=O`, for which the AC50 (on Estrogen receptor; in assay [1]; in assay [2]; at Mu-type opioid receptor) was more than 30 µM in each case.

Take `CCCCCNC(=N)N/N=C/c1c[nH]c2ccc(OC)cc12` [TEGASEROD]: the AC50 in assay [3] was more than 30 µM; on Estrogen receptor beta, more than 30 µM; in assay [1] it was 0.87 µM; in assay [2], 1.5 µM; on Mu-type opioid receptor it was more than 30 µM; in assay [4] it was 0.31 µM. Also, in assay [5], the AC50 stood at 0.169 µM.

As to `COc1cc2nc(N3CCN(C(=O)c4ccco4)CC3)nc(N)c2cc1OC` [PRAZOSIN], the AC50 (in assay [3]; on Estrogen receptor; at Estrogen receptor beta; at Mu-type opioid receptor) was more than 30 µM each time.

Consider `COc1ccccc1N1CCN(CC(O)COc2cccc3ccccc23)CC1` (stereo unspecified) [NAFTOPIDIL], for which the AC50 was 1.2 µM in assay [1], 9.2 µM in assay [2] and 26 µM on Mu-type opioid receptor.

With `O=[N+]([O-])O[C@@H]1CO[C@H]2[C@@H]1OC[C@@H]2O` [ISOSORBIDE MONONITRATE], the AC50 in assay [3] was more than 30 µM; at Estrogen receptor, more than 30 µM; at Estrogen receptor beta, more than 30 µM; in assay [1] it was more than 10 µM; in assay [4] it was more than 10 µM; in assay [5], more than 10 µM.

Consider `CN1CCN(C2=Nc3ccccc3Sc3ccc(Cl)cc32)CC1` [CLOTHIAPINE], for which the figures for the AC50 (in assay [2]; on Mu-type opioid receptor) were 1 µM and 11 µM, respectively.

For the compound `O=[N+]([O-])c1cn2c(n1)OC[C@@H](OCc1ccc(OC(F)(F)F)cc1)C2` [PRETOMANID], the AC50 in assay [3] was more than 30 µM; in assay [4] it was more than 10 µM; in assay [5], more than 10 µM.

For `CN(C)CCC=C1c2ccccc2C=Cc2ccccc21` [CYCLOBENZAPRINE], the AC50 in assay [3] was more than 30 µM; on Estrogen receptor, more than 30 µM; on Estrogen receptor beta it was more than 30 µM; in assay [1], more than 10 µM; in assay [5] it was 4.94 µM.

`C=CCN1C[C@H](C(=O)N(CCCN(C)C)C(=O)NCC)C[C@@H]2c3cccc4[nH]cc(c34)C[C@H]21` [CABERGOLINE]: the results for the AC50 (at Estrogen receptor; in assay [5]) were more than 10 µM and 0.073 µM, respectively.

`CCOc1ccc(Cc2cc([C@@H]3O[C@H](CO)[C@@H](O)[C@H](O)[C@H]3O)ccc2Cl)cc1` [DAPAGLIFLOZIN]: the half-maximal activity concentration (AC50) on Estrogen receptor is more than 30 µM; in assay [4], 8.66 µM; in assay [5] it was more than 10 µM.

For `COc1ccc(C(=O)Nc2ccccc2CCC2CCCCN2C)cc1` (stereo unspecified) [ENCAINIDE], the concentration at half-maximal activity (AC50) is more than 30 µM in assay [3]; more than 30 µM at Estrogen receptor; more than 30 µM on Estrogen receptor beta; more than 10 µM in assay [1]; 2.2 µM in assay [2]; more than 10 µM in assay [4]. The compound further had an AC50 in assay [5] of more than 10 µM.

As for `CCOc1ccccc1OCC1CNCCO1` (stereo unspecified) [VILOXAZINE], the AC50 is more than 30 µM in assay [3]; more than 30 µM at Estrogen receptor; more than 30 µM at Estrogen receptor beta; more than 10 µM in assay [1]; more than 10 µM in assay [4]; more than 10 µM in assay [5].

With `CN(C)CC/C=C1\c2ccccc2CSc2ccccc21` [DOTHIEPIN], the half-maximal activity concentration (AC50) at Estrogen receptor is more than 30 µM; in assay [2], 4.8 µM; on Mu-type opioid receptor, more than 30 µM.

For the compound `Cc1cc(C)c(NC(=O)CN(CC(=O)O)CC(=O)O)c(C)c1Br` [MEBROFENIN], the AC50 (in assay [2]; at Mu-type opioid receptor) was more than 30 µM in each case.

Consider `CCCC1O[C@@H]2C[C@H]3[C@@H]4CCC5=CC(=O)C=C[C@]5(C)[C@H]4[C@@H](O)C[C@]3(C)[C@]2(C(=O)CO)O1` (stereo partly specified) [BUDESONIDE], for which the AC50 in assay [1] was more than 10 µM.

With `COC1=C(OC)C(=O)C(C/C=C(\C)CC/C=C(\C)CC/C=C(\C)CC/C=C(\C)CC/C=C(\C)CC/C=C(\C)CC/C=C(\C)CC/C=C(\C)CC/C=C(\C)CCC=C(C)C)=C(C)C1=O` [UBIDECARENONE], the AC50 (in assay [2]; on Mu-type opioid receptor) was more than 30 µM in each case.

With `Cc1oc(=O)oc1CN1CCN(c2cc3c(cc2F)c(=O)c(C(=O)O)c2n3C(C)S2)CC1` (stereo unspecified) [PRULIFLOXACIN], the AC50 (in assay [2]; at Mu-type opioid receptor) was more than 30 µM throughout.

As for `CN(C)CCc1c[nH]c2ccc(C[C@H]3COC(=O)N3)cc12` [ZOLMITRIPTAN], the AC50 on Estrogen receptor and at Mu-type opioid receptor was more than 30 µM each time.

`CC[C@H]1CN2CCc3cc(OC)c(OC)cc3[C@@H]2C[C@@H]1C[C@H]1NCCc2cc(OC)c(OC)cc21` [EMETINE] yielded an AC50 at Mu-type opioid receptor of more than 30 µM.
